According to the NIST ThermoML archive (doi:10.1007/s10765-011-0995-x):

How the values were obtained:
[1] = refractive index (Na D-line) (dimensionless); xn = mol fraction of the nth substance listed; conditions: 101 kPa, Liquid, Standard Abbe refractometry
[2] = xn = mol fraction of the nth substance listed; conditions: 101 kPa, Liquid; for speed of sound: Pulse-echo method

Cc1cccc(Cl)c1 [3-chlorotoluene] + CCCCCCCCCCO
Conditions | mass density, [2] [kg/m3] | refractive index, [1] | speed of sound, [2] [m/s] | viscosity, [2] [mPa·s]
298.15 K, x1 = 0.0745 | 837.98 | 1.4371 | 1371.6 | 10.08
298.15 K, x1 = 0.1337 | 847.61 | 1.4394 | 1364.4 | 8.723
298.15 K, x1 = 0.2017 | 859.18 | 1.4424 | 1356 | 7.28
298.15 K, x1 = 0.2741 | 872.19 | 1.446 | 1347 | 5.927
298.15 K, x1 = 0.3471 | 886.08 | 1.4501 | 1338 | 4.762
298.15 K, x1 = 0.4139 | 899.55 | 1.4545 | 1329.9 | 3.862
298.15 K, x1 = 0.4616 | 909.68 | 1.4579 | 1324.3 | 3.322
298.15 K, x1 = 0.5532 | 930.44 | 1.4653 | 1314.9 | 2.496
298.15 K, x1 = 0.6282 | 948.88 | 1.4723 | 1308.1 | 1.985
298.15 K, x1 = 0.6772 | 961.72 | 1.4772 | 1304.1 | 1.724
298.15 K, x1 = 0.7447 | 980.55 | 1.4847 | 1300 | 1.429
298.15 K, x1 = 0.8245 | 1004.78 | 1.4947 | 1296.6 | 1.17
298.15 K, x1 = 0.8876 | 1025.62 | 1.5034 | 1296.2 | 1.016
298.15 K, x1 = 0.9433 | 1045.43 | 1.5117 | 1297.1 | 0.906
298.15 K, x1 = 1 | 1067.29 | 1.5207 | 1298.3 | 0.798
303.15 K, x1 = 0.0745 | 834.43 | 1.4353 | 1355.2 | 8.289
303.15 K, x1 = 0.1337 | 844.01 | 1.4378 | 1347 | 7.171
303.15 K, x1 = 0.2017 | 855.5 | 1.4408 | 1337.4 | 6.013
303.15 K, x1 = 0.2741 | 868.42 | 1.4445 | 1327.4 | 4.905
303.15 K, x1 = 0.3471 | 882.21 | 1.4488 | 1318 | 3.977
303.15 K, x1 = 0.4139 | 895.58 | 1.4533 | 1309.9 | 3.261
303.15 K, x1 = 0.4616 | 905.65 | 1.4567 | 1304.4 | 2.821
303.15 K, x1 = 0.5532 | 926.26 | 1.4641 | 1295.5 | 2.161
303.15 K, x1 = 0.6282 | 944.59 | 1.4711 | 1289.3 | 1.744
303.15 K, x1 = 0.6772 | 957.36 | 1.4761 | 1285.8 | 1.523
303.15 K, x1 = 0.7447 | 976.11 | 1.4835 | 1281.9 | 1.282
303.15 K, x1 = 0.8245 | 1000.26 | 1.4932 | 1278.3 | 1.063
303.15 K, x1 = 0.8876 | 1021.06 | 1.5017 | 1276.7 | 0.934
303.15 K, x1 = 0.9433 | 1040.84 | 1.5099 | 1276.5 | 0.844
303.15 K, x1 = 1 | 1062.81 | 1.5189 | 1280.1 | 0.746
308.15 K, x1 = 0.0745 | 830.88 | 1.4334 | 1335 | 6.908
308.15 K, x1 = 0.1337 | 840.4 | 1.436 | 1325.8 | 6.001
308.15 K, x1 = 0.2017 | 851.82 | 1.4391 | 1315.4 | 5.022
308.15 K, x1 = 0.2741 | 864.64 | 1.443 | 1305 | 4.123
308.15 K, x1 = 0.3471 | 878.33 | 1.4473 | 1295.4 | 3.348
308.15 K, x1 = 0.4139 | 891.6 | 1.4518 | 1287.6 | 2.771
308.15 K, x1 = 0.4616 | 901.59 | 1.4553 | 1282.4 | 2.423
308.15 K, x1 = 0.5532 | 922.06 | 1.4628 | 1273.9 | 1.862
308.15 K, x1 = 0.6282 | 940.26 | 1.4697 | 1268.3 | 1.521
308.15 K, x1 = 0.6772 | 952.94 | 1.4747 | 1265.4 | 1.343
308.15 K, x1 = 0.7447 | 971.61 | 1.482 | 1261.9 | 1.142
308.15 K, x1 = 0.8245 | 995.7 | 1.4917 | 1258.4 | 0.96
308.15 K, x1 = 0.8876 | 1016.44 | 1.5 | 1257.5 | 0.851
308.15 K, x1 = 0.9433 | 1036.25 | 1.5082 | 1257.8 | 0.777
308.15 K, x1 = 1 | 1058.33 | 1.5169 | 1262.1 | 0.705
